From patent publication US11649235B2, “Pan-tropic entry inhibitors” (Emory University, priority 2018, dated 2023)
Like-named read-outs stand apart in the source and are kept apart here.

Experiments:
HIV = details: in vitro resistance studies; cited from earlier work
HIV-1IIIB = assay: HIV MAGI assay, HIV-1IIIB; type: cell-based; details: Human immunodeficiency virus 1, MAGI
Protocol: (§1) HIV-1 and MAGI Tropism assays can be used to establish activity/cytotoxicity and synergy studies and ADME profiles of compounds are evaluated using in vitro assays such as CYP2D6/3A4 assays and metabolic stability in human and mouse liver microsomes (See Tables 2 and 3).

HIV-1BaL = assay: HIV MAGI assay, HIV-1BaL; type: cell-based; details: Human immunodeficiency virus 1, MAGI
Protocol: as §1

MAGI [1] = assay: Cytotoxicity in MAGI HIV-1IIIB assay; type: cell-based; details: Table 3
Protocol: as §1

MAGI [2] = assay: Cytotoxicity in MAGI HIV-1BaL assay; type: cell-based; details: Table 3; head prints TC90
Protocol: as §1

CYP2D6 = CYP2D6 (Homo sapiens (Human), UniProt P10635); assay: Recombinant CYP inhibition assay (fluorometric), CYP2D6; type: in vitro ADME
Chain of CYP2D6 (P10635 whole entry): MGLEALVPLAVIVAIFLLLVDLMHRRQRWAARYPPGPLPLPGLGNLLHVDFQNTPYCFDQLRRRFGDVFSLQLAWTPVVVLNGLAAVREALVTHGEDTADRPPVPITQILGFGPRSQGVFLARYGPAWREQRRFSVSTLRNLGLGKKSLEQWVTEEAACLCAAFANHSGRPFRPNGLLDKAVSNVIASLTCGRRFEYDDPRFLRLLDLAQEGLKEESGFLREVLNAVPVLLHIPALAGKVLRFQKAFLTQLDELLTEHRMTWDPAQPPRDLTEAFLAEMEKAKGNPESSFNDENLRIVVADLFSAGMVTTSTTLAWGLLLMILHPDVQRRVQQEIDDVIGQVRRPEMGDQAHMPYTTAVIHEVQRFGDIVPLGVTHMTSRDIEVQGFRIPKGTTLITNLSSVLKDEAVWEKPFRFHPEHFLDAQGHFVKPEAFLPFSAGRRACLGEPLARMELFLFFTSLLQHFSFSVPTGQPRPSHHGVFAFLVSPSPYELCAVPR
Text: (§2) Recombinant CYP Inhibition Assay: In a drug discovery program, a rapid screening for cyctochrome P450 (CYP450) inhibitors is a part of the existing standard for avoiding the development of drugs likely to give clinical pharmacokinetic drug-drug interactions and associated toxicities. A microtiter plate-based, direct fluorometric assay for the activities of the principal human drug-metabolizing enzymes, CYP2D6 and CYP3A4 can be used and these assays are rapid and compatible with existing high-throughput assay instrumentation.
(§3) Fluorometric Enzyme Inhibition Assays: Test compounds were dissolved in 100% organic solvent (CH3CN or DMSO) to make 30 mM stock solutions. […] A 100 mM potassium phosphate buffer was prepared and adjusted to pH 7.4. The 30 mM stock solution of test and control compounds (1 mM) were further diluted in phosphate buffer (100 mM, pH 7.4) to ensure the final organic solvent content was <0.2% in the reaction. In a separate falcon tube, a 2× enzyme/substrate (E/S) solution was prepared in phosphate buffer. The final concentration of CYP2D6 (Corning) and AMMC was 10 nM and 4 μM, and CYP3A4 (Corning) and BFC was 20 nM and 40 μM, respectively. In a separate falcon tube, a 2× NADPH regenerating system (NRS) was prepared in phosphate buffer. The final concentration for each component in the assay was as follows: • CYP2D6 assay=0.008 mM NADPH, 3.3 mM glucose 6-phosphate, 0.4 U of glucose-6-phosphate dehydrogenase/mL • CYP3A4 assay=2.45 mM NADPH, 24.7 mM glucose 6-phosphate, 1.25 U of glucose-6-phosphate dehydrogenase/mL
(§4) Both enzymatic assays were conducted in a 96-well microtiter plate (Black, Corning Costar) with a final volume of 100 μL. Preparation of the plate began with the addition of 74 μL of the E/S in the first well, and 50 μL to all subsequent wells (from 2-11). The test compounds (1 μL) were dissolved in the first well to give the first row a final volume of 75 μL. A 1:3 serial dilution of the test compound was conducted by removing 25 μL from the first well and diluting it with the second and so forth until the tenth row. Final concentrations yielded a range from 300 μM-0.01 μM. Well 11 contained no enzyme, and well 12 contained no inhibitor. Both were used as controls for background fluorescence. The plate was incubated for 10 min at 37° C. for CYP2D6, and 30 mins for CYP3A4. After incubation, the reaction was initiated by the addition of 50 μL of the 2× NRS to each well.
(§5) Immediately (within 1 min) the fluorescence was measured using a microplate reader (KC4, BioTek). CYP2D6 was monitored at Ex/Em=410/460 nm, and CYP3A4 monitored at Ex/Em=410/538 nm in kinetic mode that scanned every 5 min for 60 mins. Data was exported and corrected for background noise by subtracting the blank from the mean value of all other columns. […]

CYP3A4 = CYP3A4 (Homo sapiens (Human), UniProt P08684); assay: Recombinant CYP inhibition assay (fluorometric), CYP3A4; type: in vitro ADME
Chain of CYP3A4 (P08684 whole entry): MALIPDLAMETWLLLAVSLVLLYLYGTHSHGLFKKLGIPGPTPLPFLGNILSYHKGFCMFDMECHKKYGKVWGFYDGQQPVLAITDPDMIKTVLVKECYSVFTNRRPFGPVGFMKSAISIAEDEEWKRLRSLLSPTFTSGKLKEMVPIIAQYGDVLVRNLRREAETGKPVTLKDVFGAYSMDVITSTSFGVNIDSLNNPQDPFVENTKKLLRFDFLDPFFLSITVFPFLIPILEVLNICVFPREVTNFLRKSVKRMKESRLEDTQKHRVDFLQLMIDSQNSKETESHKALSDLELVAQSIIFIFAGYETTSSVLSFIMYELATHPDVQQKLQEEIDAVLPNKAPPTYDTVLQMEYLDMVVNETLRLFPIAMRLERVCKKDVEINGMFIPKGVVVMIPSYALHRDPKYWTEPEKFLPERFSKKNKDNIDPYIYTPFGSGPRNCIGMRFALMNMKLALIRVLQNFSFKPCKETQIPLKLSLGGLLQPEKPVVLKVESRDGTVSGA
Text: as §2, §3, §4, §5

[3] = Protocol: Human Liver Microsomes: Pooled mixed gender human liver microsomes at a concentration of 20 mg/mL were purchased from XenoTech (Kansas City, Kans.). The vials of microsomes were stored at −80° C. and thawed on ice before each experiment. The microsomes were diluted to 1 mg/mL with 100 mM potassium phosphate buffer (pH 7.4).
Experimental Conditions: Test compounds were weighed and dissolved in 100% acetonitrile to make 2 mM stock solutions. […] The 2 mM stock solution of test and control compounds were further diluted in sodium phosphate buffer (100 mM, pH 7.4) to 50 μM to ensure the acetonitrile content was <0.2%.
The liver microsome assay was prepared in a 1.5 mL Eppendorf tube (Fisher Scientific) with a final volume of 1100 μL. Each reaction contained sodium phosphate buffer, liver microsomes (1 mg/mL), and test compound resulting in a final concentration of 3 μM. Following a 5 min pre-incubation of drug and microsomes in a 37° C. shaking incubator, the reaction was initiated with NADPH (110 μL). Aliquots (100 μL) were removed in duplicate at 0, 5, 10, 15, and […] and quenched in cold acetonitrile (200 μL). The aliquots were centrifuged at 12,000 g for 5 min and the supernatant removed and placed in an LCMS vial. […] A no NADPH negative control with test and control compound was conducted in singlet (150 μL) at the longest time point. Controls were processed and analyzed like test compounds.
An Agilent Technologies LCMS system consisting of an Agilent 6120 quadrupole mass spectrometer equipped with an Agilent 1200 binary pump, degasser, and auto sampler (Santa Clara, Calif.). The analytical column used for analysis was an XDB-Eclipse Plus C18 column (4.6 mm×150 mm column; Agilent Technologies). The mobile phase for the HPLC was 50 mM ammonium formate buffer, pH 3.5 (A) and acetonitrile (B). The samples were analyzed using the following 8-minute method: A linear gradient from 10% B to 95% B over for 5 minutes, with a 3 min hold at 95%. An equilibration at 10% B for 5 min was conducted after each run. Sample injection volume was 10 μL and the flow rate was 1.0 mL/min. Single ion monitoring of the mass in positive mode was conducted the molecular weight for each compound. Each time point was assessed on the LCMS and the area, based on the extracted ion, was manually integrated.
Calculations: The depletion of the compound was monitored as a function of time, and the area under the curve was manually integrated. The relative percent remaining was calculated using: Relative % remaining=AreaTime/AreaTime=0*100. The relative percentages for the duplicate runs were averaged and the standard deviations were calculated. Metabolism data averaged duplicates.

[4] = Mouse liver microsomes assay; type: in vitro ADME; details: for Relative % remaining, mouse liver microsomes: 3 μM compound, 1 mg/mL microsomes
Protocol: Controls were processed and analyzed like test compounds. […] The relative percent remaining was calculated using: Relative % remaining=[…]=0*100. […] Metabolism data averaged duplicates.

## c1cc(CN2CCCNCCNCCCNCC2)ccc1CN1CCCNCCNCCCNCC1 [AMD3100]
HIV
  Passages required to develop resistance: 63 passages

## Cc1cn([C@H]2C[C@H](N=[N+]=[N-])[C@@H](CO)O2)c(=O)[nH]c1=O [AZT]
HIV
  Passages required to develop resistance: 11 passages

## NCCCCN(C[C@H]1CN(CC[C@H](NC(=O)C2CCC(F)(F)CC2)c2ccccc2)CCN1)[C@H]1CCCc2cccnc21 [Compound 2]
HIV-1IIIB; Table 3
  IC50: 70 nM
  IC90: 680 nM
HIV-1IIIB; Table 1, read-out: HIV MAGI EC50 HIVIIIB
  EC50: 70 nM
HIV-1BaL; Table 3
  IC50: 2610 nM
  IC90: 29100 nM
HIV-1BaL; Table 1, read-out: HIV MAGI EC50 HIVBa-L
  EC50: 2610 nM
MAGI [1]
  MAGI HIV-1IIIB TC50: >10000 nM
MAGI [2]
  MAGI HIV-1BaL TC90: 33100 nM
CYP2D6; Table 1
  IC50: > 20000 nM
CYP2D6; preliminary ADME screening
  Inhibition of cytochrome P450 isoform 2D6 (in words): does not inhibit
CYP3A4; Table 1
  IC50: > 20000 nM
CYP3A4; preliminary ADME screening
  Inhibition of cytochrome P450 isoform 3A4 (in words): does not inhibit
[3]
  Stability in human liver microsomes (in words): good stability
[3]; both, 10 min, 3 μM, pH 7.4
  Relative % remaining, human liver microsomes: 65 ± 8.6%
[3]; both, 0.5 h, 3 μM, pH 7.4
  Relative % remaining, human liver microsomes: 78 ± 2.2%
[3]; both, human, microsomes, 10 min, 3 μM, pH 7.4
  HLM: 65% @ 10 min
[4]
  Stability in mouse liver microsomes (in words): good stability
[4]; 10 min
  Relative % remaining, mouse liver microsomes: 95 ± 7.2%
[4]; 30 min
  Relative % remaining, mouse liver microsomes: 96 ± 6.5%
[4]; @ 10 min, Table 1
  MLM: 95% @ 10 min

## Cc1ccc(-c2ccc3c(c2)C=C(C(=O)Nc2ccc(C[N+](C)(C)C4CCOCC4)cc2)CCC3)cc1.[Cl-] [TAK-779]
HIV
  Passages required to develop resistance: 41 passages

## Cc1ccnc2c1NC(=O)c1cccnc1N2C1CC1 [nevirapine]
HIV
  Passages required to develop resistance: 2 passages
